Measured values: patent US7029696B2, “Delivery and activation through liposome incorporation of diaminocyclohexane platinum(II) complexes” (priority 1996, dated 2006)
“Also recorded” adds a separate entry of the source.

Experiments:
[1] = test system: intraperitoneal L1210 mouse leukemia; test: In vivo antitumor activity of liposomal Pt-complexes
Description: In vivo. The in vivo antitumor activity of liposomal Pt-complexes was assessed against intraperitoneal L1210 mouse leukemia. […] The results were expressed as the median survival of treated animals divided by the median survival of control animals ×100 (% T/C).

[2] = Intraliposomal stability of Pt-complexes by HPLC; assay type: physicochemical; conditions: for intraliposomal stability (in words): DMPC:DMPG liposomes, saline or PBS; for percentage of intact Pt-complex: in liposomes, 6 h after liposome preparation; for NDDP stability (%): liposomal NDDP, lipids as dry powder
Description: Stability of the different Pt-complexes incorporated in liposomes was determined as described previously by comparing the HPLC profiles as a function of time. In brief, aliquoted samples of liposome suspension were diluted (7×) with methanol at 0, 2, 6, and 24 h after liposome preparation, and each sample was then monitored by HPLC using chromega-8 bond column (4.6 mm×25 cm, 8 μm: ES Industries, NJ) and 10% water-methanol as eluant. The flow rate was 1 ml/min, and the complexes were detected by UV at 224 nm wavelength.

[3] = Tracking of liposomal NDDP degradation by 195Pt NMR and HPLC; assay type: physicochemical
Description: To characterize the active intermediate(s) in the reaction cascade of L-NDDP reconstituted in saline (0.9% NaCl), tracking experiments using ^195Pt NMR spectra in combination with ^31P NMR were performed. Samples 1–3 were prepared using the lipids DMPC and DMPG purchased in chloroform solution, while samples 4–8 were prepared using lipids in dry powder. In samples 1–3, the chloroform was initially evaporated in a rotavapor. The lipid film was dissolved in t-butanol containing the NDDP in solution. An aliquot of this solution was kept at 40° C. for 6 h and then lyophilized and extracted with methanol (sample 3). The remaining was lyophilized immediately, thus resulting in a preliposomal powder, which was reconstituted with saline to produce the liposome suspension. The liposome suspension was kept at room temperature for 6 hours. The Pt compounds and lipids were then extracted with chloroform (sample 1) or the sample was lyophilized to eliminate the water and the powder dissolved in methanol (sample 2) (see FIG. 6). Samples 4, 5, and 6 were prepared by complete evaporation of solvents after keeping the samples at 40° C. for 6 h, and redissolving them in methanol. Samples 7 and 8 were prepared by lyophilization of water for 1–2 d and redissolution in methanol. All samples were prechecked by HPLC before tracking with NMR. Chemical shifts of the products are expressed in parts-per-million relative to Na2PtCl6 in ^195Pt and DMPC in ^31P NMR.

[4] = Solubility of DACH-Pt-Cl2; assay type: physicochemical
[5] = Liposome entrapment (entrapment efficiency, free drug crystals by optic microscopy); assay type: physicochemical; conditions: generated within the liposome membranes from NDDP
Source text: NDDP and its two isomers, B10 and L10 were formulated in liposomes composed of combinations of various lipids including DMPC, DMPG, DOPC, DOPG, PA, PE, and PS. The liposomes were formed by reconstituting preliposomal powders containing the Pt-complex and the lipids with unbuffered 0.9% NaCl aqueous solution (saline) or phosphate-buffered saline (PBS). […] The median size of the multilamellar vesicles was 1–2 μm in all preparations. The median size of the small-size liposomes prepared by ultrasonication of multilamellar vesicles was 50–100 nm.

[6] = liposomal, DMPC:DMPG 7:3, lipids in chloroform, reconstituted in PBS, 25 mg/kg i.p. day 1
[7] = liposomal, DMPC:DMPG 7:3, lipids in chloroform, reconstituted in PBS, 50 mg/kg i.p. day 1
[8] = liposomal, DMPC:DMPG 7:3, lipids in chloroform, reconstituted in PBS, 100 mg/kg i.p. day 1
[9] = liposomal, DMPC:DMPG 7:3, lipids in chloroform, reconstituted in PBS, 150 mg/kg i.p. day 1
[10] = liposomal, DMPC:DMPG 7:3, lipids in chloroform, reconstituted in saline, 25 mg/kg i.p. day 1
[11] = liposomal, DMPC:DMPG 7:3, lipids in chloroform, reconstituted in saline, 50 mg/kg i.p. day 1
[12] = liposomal, DMPC:DMPG 7:3, lipids in chloroform, reconstituted in saline, 100 mg/kg i.p. day 1
[13] = liposomal, DMPC:DMPG 7:3, lipids in chloroform, reconstituted in saline, 150 mg/kg i.p. day 1
[14] = liposomal, lipids in chloroform, reconstituted in PBS
[15] = liposomal, lipids in chloroform, reconstituted in saline

CCCCCCC(C)(C)C(=O)[O][Pt][O]C(=O)C(C)(C)CCCCCC.N[C@@H]1CCCC[C@H]1N [B10]
% T/C [1, 6]: 114% | % T/C [1, 7]: 114% | % T/C [1, 8]: 142% | % T/C [1, 9]: 163% | % T/C [1, 10]: 114% | % T/C [1, 11]: 128% | % T/C [1, 12]: 228% | % T/C [1, 13]: 163% | antitumor activity (in words) [1, 14]: no significant antitumor activity | optimal dose [1, 15]: 100 mg | intraliposomal stability (in words) [2]: intermediate stability | percentage of intact Pt-complex ([2]; reconstituted in PBS): 95.9% | percentage of intact Pt-complex ([2]; reconstituted in saline): 85.0%

CCCCCCCCCC(=O)[O][Pt][O]C(=O)CCCCCCCCC.N[C@@H]1CCCC[C@H]1N [L10]
% T/C [1, 6]: 114% | % T/C [1, 7]: 100% | % T/C [1, 8]: 100% | % T/C [1, 9]: 100% | % T/C [1, 10]: 100% | % T/C [1, 11]: 157% | % T/C [1, 12]: 178% | % T/C [1, 13]: 123% | antitumor activity (in words) [1, 14]: no significant antitumor activity | optimal dose [1, 15]: 100 mg | intraliposomal stability (in words) [2]: highly stable | percentage of intact Pt-complex ([2]; reconstituted in PBS): 100% | percentage of intact Pt-complex ([2]; reconstituted in saline): 93.1%

cis-bis-neodecanoato-trans-R,R-1,2-diaminocyclohexane platinum (II) [NDDP]
% T/C [1, 6]: 114% | % T/C [1, 7]: 171% | % T/C [1, 8]: 200% | % T/C [1, 9]: 150% | % T/C [1, 10]: 157% | % T/C [1, 11]: 211% | % T/C [1, 12]: Toxic | % T/C [1, 13]: Toxic | optimal dose ([1]; liposomal, dry lipids, reconstituted with saline of pH 3.0): 25 mg/kg | optimal dose ([1]; liposomal, dry lipids, reconstituted with saline of pH 5.0): 50 mg/kg | optimal dose ([1]; liposomal, dry lipids, reconstituted with saline of pH 7.0): 100 mg/kg | % T/C ([1]; liposomal, dry lipids, saline pH 3.0, 12.5 mg/kg, administered 6 h after reconstitution): 157% | % T/C at the optimal dose ([1]; liposomal, dry lipids, saline pH 3.0, 25 mg/kg): 214% | % T/C ([1]; liposomal, dry lipids, saline pH 3.0, 25 mg/kg, administered 10 min after reconstitution): 150% | % T/C ([1]; liposomal, dry lipids, saline pH 3.0, 25 mg/kg, administered 2 h after reconstitution): 186% | % T/C ([1]; liposomal, dry lipids, saline pH 3.0, 25 mg/kg, administered 6 h after reconstitution): 240% | % T/C ([1]; liposomal, dry lipids, saline pH 3.0, 50 mg/kg, administered 6 h after reconstitution): Toxic | % T/C ([1]; liposomal, dry lipids, saline pH 5.0, 12.5 mg/kg, administered 6 h after reconstitution): 186% | % T/C ([1]; liposomal, dry lipids, saline pH 5.0, 25 mg/kg, administered 6 h after reconstitution): 200% | % T/C at the optimal dose ([1]; liposomal, dry lipids, saline pH 5.0, 50 mg/kg): 271% | % T/C ([1]; liposomal, dry lipids, saline pH 5.0, 50 mg/kg, administered 10 min after reconstitution): 133% | % T/C ([1]; liposomal, dry lipids, saline pH 5.0, 50 mg/kg, administered 2 h after reconstitution): 216% | % T/C ([1]; liposomal, dry lipids, saline pH 5.0, 50 mg/kg, administered 6 h after reconstitution): 270% | % T/C ([1]; liposomal, dry lipids, saline pH 5.0, 100 mg/kg, administered 6 h after reconstitution): Toxic | % T/C ([1]; liposomal, dry lipids, saline pH 7.0, 25 mg/kg, administered 6 h after reconstitution): 186% | % T/C ([1]; liposomal, dry lipids, saline pH 7.0, 50 mg/kg, administered 6 h after reconstitution): 200% | % T/C at the optimal dose ([1]; liposomal, dry lipids, saline pH 7.0, 100 mg/kg): 271% | % T/C ([1]; liposomal, dry lipids, saline pH 7.0, 100 mg/kg, administered 10 min after reconstitution): 163% | % T/C ([1]; liposomal, dry lipids, saline pH 7.0, 100 mg/kg, administered 2 h after reconstitution): 216% | % T/C ([1]; liposomal, dry lipids, saline pH 7.0, 100 mg/kg, administered 6 h after reconstitution): 257% | optimal dose [1, 14]: 100 mg/kg | optimal dose [1, 15]: 50 mg/kg | stability in the absence of DMPG ([3]; liposomes composed of only DMPC): completely preserved stability | degradation of NDDP ([3]; sample 7: dry-powder lipids, saline pH 6.5–7.0, 6 h at room temperature): < 5% | degradation of NDDP ([3]; sample 8: dry-powder lipids, acidic saline pH 3.0–4.0, in 10 min, yielding DACH-Pt—Cl2): 60–95% | original NDDP remaining ([2]; 24 h, DMPC:DMPG 7:3, NDDP:total lipid ratio 1:15 or 1:30): 25% | initial NDDP present ([2]; 24 hours, DMPC:DMPG 7:3, NDDP:total lipid ratio 1:5 or 1:10): 85% | intraliposomal stability (in words) [2]: rather unstable | percentage of intact Pt-complex ([2]; reconstituted in PBS): 82.1% | percentage of intact Pt-complex ([2]; reconstituted in saline): 43.7% | NDDP stability (%) ([2]; saline pH 3.0, 10 min after reconstitution): 43% | NDDP stability (%) ([2]; saline pH 3.0, 2 h after reconstitution): 15% | NDDP stability (%) ([2]; saline pH 3.0, 6 h after reconstitution): 7% | NDDP stability (%) ([2]; saline pH 5.0, 10 min after reconstitution): 80% | NDDP stability (%) ([2]; saline pH 5.0, 1 h after reconstitution): 72% | NDDP stability (%) ([2]; saline pH 5.0, 2 h after reconstitution): 67% | NDDP stability (%) ([2]; saline pH 5.0, 6 h after reconstitution): 38% | NDDP stability (%) ([2]; saline pH 7.0, 10 min after reconstitution): 100% | NDDP stability (%) ([2]; saline pH 7.0, 2 h after reconstitution): 95% | NDDP stability (%) ([2]; saline pH 7.0, 6 h after reconstitution): 92% | NDDP transformed into the active Pt-species ([2]; saline pH 5.0, calculated amount of activated species (35 mg/kg of 50 mg/kg)): about 70% | NDDP transformed into the active Pt-species ([2]; saline pH 7.0, calculated amount of activated species (10 mg/kg of 100 mg/kg)): 10% | effect of liposome size on intraliposomal stability ([2]; ultrasonication of multilamellar vesicles, regardless of lipid composition): did not affect the intraliposomal stability

N.N.[Cl][Pt][Cl] [Cisplatin, cis-dichlorodiamine-platinum(II), reference compound]
% T/C ([1]; Table 2 comparator, 10 mg/kg i.p. day 1, printed in the Saline column): 142% | % T/C ([1]; Table 3 comparator, 10 mg/kg, printed in the 6 h column): 150%

dichloro(1,2-diaminocyclohexane) platinum(II) [DACH-Pt—Cl2]
solubility in dimethylformamide ([4]; dimethylformamide (DMF)): good solubility | solubility in most organic solvents ([4]; most organic solvents): insoluble | solubility in water ([4]; water): very low solubility; also recorded: lack of solubility | time the drug remains liposome-bound without leaking out and crystallizing [5]: at least 24 h
